Laboratory results reported in PubChem BioAssay (NCI).
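Results reflect a 48-hour exposure of cells in 96-well plates to compound at five concentrations. TGI: concentration producing complete growth inhibition.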

Legend:
Test in all cases: DTP human tumour cell line panel, 48 h
[1] = system: SK-OV-3 ovarian
[2] = system: TK-10 renal
[3] = system: SF-539 CNS
[4] = system: SW-620 colon
[5] = system: OVCAR-3 ovarian
[6] = system: HT29 colon
[7] = system: NCI-H226 lung
[8] = system: U251 CNS
[9] = system: SK-MEL-28 melanoma
[10] = system: SK-MEL-5 melanoma
[11] = system: MDA-MB-231 breast
[12] = system: 786-0 renal
[13] = system: SR leukemia
[14] = system: SNB-75 CNS
[15] = system: OVCAR-4 ovarian
[16] = system: UACC-62 melanoma
[17] = system: RPMI-8226 leukemia
[18] = system: MDA-MB-435
[19] = system: KM12 colon
[20] = system: EKVX NSCLC

SMILES	TGI [1]	TGI [2]	TGI [3]	TGI [4]	TGI [5]	TGI [6]	TGI [7]	TGI [8]	TGI [9]	TGI [10]	TGI [11]	TGI [12]	TGI [13]	TGI [14]	TGI [15]	TGI [16]	TGI [17]	TGI [18]	TGI [19]	TGI [20]
CC(NC1=CC(=O)c2cccnc2C1=O)C(O)c1ccccc1 (centres undefined)	23.4 µM	28.1 µM	3.75 µM	3.89 µM	6 µM	9.45 µM	4.44 µM	13.2 µM	3.1 µM	2.44 µM	> 46.3 µM	12.2 µM	> 23.1 µM	3.05 µM	11.1 µM	3.1 µM	6.7 µM	3.13 µM	27.8 µM	20.1 µM
O=[N+]([O-])c1cc(-[n+]2cc([O-])on2)ccc1Cl	> 100 µM	67.2 µM		26.2 µM	> 100 µM	28.5 µM	> 100 µM	30.7 µM	29.6 µM	21.9 µM	37.7 µM	60.3 µM	> 100 µM	66.3 µM	29.1 µM	89.8 µM	79.8 µM	> 100 µM	54.9 µM	37.8 µM
O=C(CC(C(=O)c1ccsc1)c1ccsc1)c1ccsc1 (centres undefined)	> 100 µM	> 100 µM	> 100 µM	> 100 µM		> 100 µM	> 100 µM	> 100 µM	> 100 µM	> 100 µM	> 100 µM	> 100 µM	> 100 µM	> 100 µM	> 100 µM	> 100 µM	> 100 µM	> 100 µM	> 100 µM	> 100 µM
c1ccc2c(c1)c1c3c(c4c(n32)=NCCN4)CCC1	> 100 µM	> 100 µM	> 100 µM	> 100 µM	> 100 µM	56.7 µM	80.9 µM	> 100 µM	> 100 µM	> 100 µM	98.9 µM	> 100 µM	47.4 µM	71.5 µM	> 100 µM	> 100 µM	63.2 µM	> 100 µM	> 100 µM	> 100 µM
CN(C)c1ccc(/C=N/c2nc3cc4sc(/N=C/c5ccc(N(C)C)cc5)nc4cc3s2)cc1	> 100 µM	> 100 µM	> 100 µM	> 100 µM	> 100 µM	> 100 µM	> 100 µM	> 100 µM	> 100 µM	> 100 µM	> 100 µM	> 100 µM	> 100 µM	> 100 µM	> 100 µM	> 100 µM	> 100 µM	> 100 µM	> 100 µM	> 100 µM
CCC1(CC)N=C(C(F)(F)F)c2cc(C(=O)C(F)(F)F)c3ccccc3c2N1	49.7 µM	61.3 µM	31.8 µM	> 100 µM	8.58 µM	81.4 µM	20.9 µM	23.6 µM	52.2 µM	11.4 µM	12.3 µM	13.7 µM	9.36 µM	23 µM	> 100 µM	13.3 µM		> 100 µM	> 100 µM	64.2 µM
O=c1[nH][nH]c(=O)n1/N=C/c1ccccc1	> 100 µM	> 100 µM	> 100 µM	> 100 µM	> 100 µM	> 100 µM	> 100 µM	> 100 µM	> 100 µM	> 100 µM	> 100 µM	> 100 µM	> 100 µM	> 100 µM		> 100 µM	> 100 µM	> 100 µM	> 100 µM	> 100 µM
CCOC(=O)c1c(N2CCCC2)[nH]c(=O)c(C(c2ccc(Cl)c([N+](=O)[O-])c2)c2c(O)c(C(=O)OCC)c(N3CCCC3)[nH]c2=O)c1O	> 100 µM	59.2 µM	41.6 µM	> 100 µM	> 100 µM		> 100 µM	36.9 µM	> 100 µM	> 100 µM	50.5 µM	> 100 µM	> 100 µM	34.4 µM	> 100 µM	86 µM	> 100 µM	> 100 µM	> 100 µM	> 100 µM
CC/C(Cl)=N\OC(=O)Nc1ccc(OC)c(C)c1	> 100 µM	41.7 µM	42 µM	> 68.8 µM	50 µM	41.2 µM	70.4 µM	> 100 µM	62 µM	39.1 µM	> 88.6 µM	36.8 µM	26.9 µM	> 100 µM	36.5 µM	28.9 µM	> 55.8 µM	> 100 µM	> 60 µM	10.1 µM
O=C(COc1ccccc1)N(C(=O)N1CCN(c2ccccc2)CC1)S(=O)(=O)c1ccccc1	> 100 µM	> 100 µM	> 100 µM	> 100 µM	> 100 µM	> 100 µM	> 100 µM	> 100 µM	> 100 µM	> 100 µM	> 100 µM	> 100 µM	45.4 µM	96 µM	> 100 µM	> 100 µM		> 100 µM	> 100 µM	> 100 µM
CC(C)(C)OC(=O)[C@@H]1ON2O[C@H](OC3CCCC3(c3ccccc3)c3ccccc3)C[C@H]3OC(=O)[C@@H]1[C@H]32 (some centres undefined)	> 100 µM	> 100 µM	> 100 µM	> 100 µM	54.1 µM	> 100 µM	> 100 µM	> 100 µM	> 100 µM	> 100 µM	> 100 µM	> 100 µM	> 100 µM	> 100 µM	54.3 µM	> 100 µM		> 100 µM	> 100 µM	> 100 µM
CC(=O)Oc1c2ccsc2c(OC(C)=O)c2ccsc12	9.93 µM	4.2 µM	0.913 µM		6.54 µM	4.45 µM	5.07 µM	2.45 µM	1.24 µM	0.31 µM	6.17 µM	5.2 µM	0.88 µM	0.753 µM	1.73 µM	3.3 µM	> 28 µM	0.377 µM	3.24 µM	3.63 µM
O=C1OCC(c2ccc(Cl)cc2)=C1Cl	> 100 µM	60.6 µM	> 100 µM	61.2 µM	44.4 µM	> 100 µM	> 100 µM	> 100 µM	> 100 µM	31.5 µM	98.6 µM	40.6 µM	39.2 µM	> 100 µM	> 100 µM	45.9 µM	86.2 µM	> 100 µM	36 µM	> 100 µM
CCOC(=O)OC1C(Br)C2CCC1(C)C2(C)C (centres undefined)	29.5 µM	27.8 µM	28 µM	30.8 µM	28.8 µM	18.6 µM	28.1 µM	26.6 µM	29.3 µM	27.6 µM	24.9 µM	28.8 µM	5.83 µM	24.6 µM	25.1 µM	32.1 µM	20.7 µM	23.6 µM	28.4 µM	29.4 µM
COC(=O)Cc1c([C@H]2[C@H](CC(=O)OC)c3ccccc3N2S(=O)(=O)c2ccc(C)cc2)[nH]c2ccccc12	> 100 µM	> 100 µM	> 100 µM	> 100 µM	> 100 µM	> 100 µM	> 100 µM	> 100 µM	> 100 µM	> 100 µM	> 100 µM	> 100 µM	> 84.9 µM	> 100 µM	> 100 µM	> 100 µM	> 100 µM	> 100 µM	> 100 µM	> 100 µM
c1ccc(-c2c(-c3cccs3)[nH]c(-c3cccs3)c2-c2ccccn2)nc1	51.3 µM	> 100 µM	40.6 µM	68.8 µM	58.3 µM	30.3 µM	49.2 µM	48.7 µM		26.6 µM	48.7 µM	53 µM	81.1 µM	42.9 µM		35.6 µM	68.5 µM	43.6 µM	62.6 µM	65.4 µM
COc1ccc(CNc2nc(NCc3ccc(OC)cc3)nc(NC3CCCC3)n2)cc1	> 100 µM	> 26.1 µM	11.4 µM	> 100 µM	> 23 µM	13.6 µM	> 55.8 µM	> 25.3 µM	> 100 µM	14 µM	> 31.2 µM	> 68.5 µM	> 100 µM	> 100 µM	> 100 µM	> 59.6 µM	> 30.4 µM	4.95 µM	1.59 µM	> 100 µM
Cc1nc2cc3ccccc3cc2[nH]c1=O	> 100 µM	> 100 µM	> 100 µM	> 100 µM	> 100 µM	> 100 µM	> 100 µM	> 100 µM	> 100 µM	> 100 µM	> 100 µM	> 100 µM	> 100 µM	87 µM	> 100 µM	> 100 µM		> 100 µM	> 100 µM	> 100 µM
COc1ccc(N=Nc2ccc3oc(=O)c(C(=O)Nc4ccccc4C)cc3c2)cc1	> 10 µM	> 10 µM	> 10 µM	> 10 µM	> 10 µM	> 10 µM	> 10 µM	> 10 µM	> 10 µM	> 10 µM	> 10 µM	> 10 µM	> 10 µM	> 10 µM	> 10 µM		> 10 µM	> 10 µM	> 10 µM	> 10 µM
CCC/C(Cl)=N/OC(NC(=O)OCC)(C(F)(F)F)C(F)(F)F		33.3 µM	30.3 µM	37.5 µM	29.6 µM	47.2 µM	> 100 µM	> 100 µM	59.2 µM	71.4 µM	31.6 µM	31.2 µM	57.6 µM	> 100 µM	31.7 µM	> 100 µM	56.1 µM	34.8 µM	> 100 µM	45 µM
Nc1cc2ncnn2c(SCC(=O)N/N=C/C(Br)=C\c2ccccc2)n1		72.3 µM	39.2 µM	30.5 µM	40.5 µM	28 µM	68.6 µM	20.7 µM	37.6 µM	26.2 µM	40 µM	36.9 µM	> 100 µM	> 100 µM			50.1 µM	30.9 µM	52.7 µM	> 100 µM
C=CCOCn1cc(F)c(=O)[nH]c1=O	> 100 µM	> 100 µM	> 100 µM	> 100 µM		> 100 µM	> 100 µM		> 100 µM	> 100 µM	> 100 µM	> 100 µM	> 100 µM	> 100 µM		> 100 µM	> 100 µM	> 100 µM	> 100 µM	> 100 µM
CC(C)OC(=O)[C@H]1ON2O[C@H](O[C@@H]3CCCC[C@H]3c3ccccc3)C([Si](C)(C)c3ccccc3)[C@H]3OC(=O)[C@@H]1C32 (some centres undefined)	> 100 µM	> 100 µM	> 100 µM	> 100 µM	> 100 µM	> 100 µM	> 100 µM	> 100 µM	> 100 µM	> 100 µM	> 100 µM	> 100 µM	54.2 µM	> 100 µM		> 100 µM	> 100 µM	> 100 µM	> 100 µM	> 100 µM
COc1ccccc1/C=C1\S/C(=N/Nc2nc(C)c(C(C)=O)s2)NC1=O	> 100 µM	> 100 µM	> 100 µM	> 100 µM	56.1 µM	> 100 µM	39.8 µM	> 100 µM	> 100 µM	47.7 µM	65 µM	> 100 µM	> 100 µM	61 µM	> 100 µM	> 100 µM	89.4 µM	> 100 µM	> 100 µM	
